One assay deals with NAD metabolome in PBMCs. Briefly: Metabolomic analysis (LC-MS) in PBMCs. It is filed as in vivo, human. The settings on record: oral NR 1000 mg/day, 30 days. As to the method: Biological material was collected at both visits, following a minimum 6-hour fasting and within 6 hours after study drug intake for visit 2. Sampling included whole blood, serum, peripheral blood mononuclear cells (PBMCs), cerebrospinal fluid (CSF) and muscle biopsy. Lumbar puncture was performed according to standard clinical procedures to collect 10 ml CSF. Needle biopsy of the vastus lateralis muscle was performed using a Bard Magnum biopsy gun (BD©, United States) and 12G×10 cm biopsy needles. Muscle biopsies were immediately dissected to remove any non-muscle tissue (e.g., fat or fascia) and snap-frozen in liquid nitrogen.
Standard substances of all the targeted compounds were used to prepare stock standard solutions and these solutions were mixed and diluted to make serially diluted standard solutions in an internal standard solution containing 11 isotope-labeled compounds (NAD-13C5, NADH-d5, nicotinamide riboside-d4, nicotinic-d4 acid, nicotinic acid-d4 riboside, AMP-15N5, ATP-13C10, nicotinamide-d4, 1-methylnicotinamide-d3, adenosine-13C5 and GTP-13C10) in a concentration range of 0.0002 to 20 nmol/mL. […] For metabolomic analyses in PBMCs, several aliquots of one sample were thawed on ice, centrifuged (10 min, 350×g, 4° C.), resuspended in ice-cold PBS and counted on a countess II cell counter. […]
For UPLC-MRM/MS, 10 μL aliquots of each standard solution and each sample solutions were injected to run LCMRM/MS either on a Waters Acquity UPLC coupled to a Sciex QTRAP 6500 Plus mass spectrometer with (−) ion detection or ESI or on an Agilent 1290 UHPLC system coupled to an Agilent 6495B QQQ mass spectrometer with (+) ion detection. […] Concentrations of individual metabolites detected in each sample were calculated by constructing linear-regression curves of individual metabolites with the analyte-to-internal standard peak area ratios (As/Ai) of standard solutions in each set of LC-MS runs and then by interpolating the calibration curves with the as/Ai values measured from injections of sample solutions in an appropriate concentration range for each compound. […]

A further assay has as its system mice. The settings on record: Xie et al. 2019; cited from earlier work.
The subject of the next assay is drosophila fly models. The settings on record: Schöndorf et al. 2018; cited from earlier work.
In a further assay the test system is gene expression in PBMCs. The experiment in a line: RNA-seq differential gene expression in PBMCs. It is filed as in vivo, human. Here is the method:
For all subjects at both visits, total RNA was extracted from muscle biopsy tissue and PBMC homogenate using RNeasy plus mini kit (Qiagen) with on-column DNase treatment according to manufacturer's protocol. The final elution was made in 45 ul of dH2O. The concentration and integrity of the total RNA were estimated by Ribogreen assay (Thermo Fisher Scientific), and Fragment Analyzer (Advanced Analytical), respectively, and 10 ng of total RNA was used for downstream RNA-seq applications using the SMARTer Stranded Total RNA-Seq Kit v2—Pico Input Mammalian Kit (IlluminaTakara Bio USA, Inc., Mountian View, CA) as per manufacturer's recommended protocol. Library quantity was assessed by Picogreen Assay (Thermo Fisher Scientific), and the library quality was estimated by utilizing a DNA High Sense chip on a Caliper Gx (Perkin Elmer). Accurate quantification of the final libraries for sequencing applications was determined using the qPCR-based KAPA Biosystems Library Quantification kit (Kapa Biosystems, Inc.). Each library pooled equimolar prior to clustering. One hundred bp paired-end sequencing was performed on an Illumina NovaSeq S4 sequencer (Illumina, Inc.). Two subjects were discarded from the PBMC samples and two from the muscle samples due to either insufficient tissue quantity, participant drop out/lack of sample, or being outliers in expression.
FASTQ files were assessed using fastQC version 0.11.9. Quantification at the transcript level was calculated using Salmon version 1.3.0 with fragment-level GC bias correction against the GENCODE version 35, with the whole genome as decoy sequence. Transcript-level quantification was collapsed onto gene-level using the tximport R package version 1.8.0. Genes in non-canonical chromosomes and scaffolds and transcripts encoded by the mitochondrial genome were filtered out, together with non-protein-coding genes. Low-expressed genes were likewise removed from downstream analyses (expression below 10 reads for 75% of the samples). PBMC and muscle datasets were analysed independently. For PBMC samples, cell type composition was assessed employing ABIS. Differential gene expression was performed using the DESeq2 R package version 1.22.2. The generalized linear model formula accounted for both interindividual variability between subjects and the normal course of the experiment (baseline for each subject and baseline for the time-course). Multiple hypothesis testing was performed with the default automatic filtering of DESeq2 followed by false discovery rate (FDR) calculation by the Benjamini-Hochberg procedure.

Turning to `NC(=O)c1ccc[n+]([C@@H]2O[C@H](CO)[C@@H](O)[C@H]2O)c1` [NR, nicotinamide riboside], in the assay on NAD metabolome in PBMCs, the “Me-Nam level in PBMCs” value was “increase”; the “NAAD level in PBMCs” value is listed as “increase”; the “acetyl-CoA, CoA, SAM and its metabolites, energy compounds such as ATP in PBMCs” value is on record as “no significant change”. Moreover, the neuroprotection in mice result in the assay on mice is given as “neuroprotective effects”. The “mitochondrial defects and dopaminergic neuronal loss in drosophila fly models” value in the assay with drosophila fly models is “rescues mitochondrial defects and age-related dopaminergic neuronal loss”. Moreover, in the assay with gene expression in PBMCs (NR vs placebo), the “BLOC1S2 expression in PBMCs” value is listed as “upregulation”; the “functional enrichment in PBMCs: ribosomal, proteasomal, lysosomal and mitochondrial (oxidative phosphorylation) pathways” value was “highly significant upregulation”; the “genes encoding known NAD biosynthetic enzymes including NMRK1” value is “No significant changes”; the “number of genes significantly associated with NR supplementation in PBMCs” value is on record as 13 genes. The “Direction of pathway enrichment (MitoCarta v3.0): mtRNA metabolism” value in the assay on gene expression in PBMCs (P 0.003136, corrected P 0.13170171) was “DOWN”. In addition, in the assay on gene expression in PBMCs (P 0.009994, corrected P 0.209874), the “Direction of pathway enrichment (MitoCarta v3.0): mt-tRNA modifications” value is “DOWN”. Besides, the “Direction of pathway enrichment (MitoCarta v3.0): Cl assembly factors” value with gene expression in PBMCs (P 0.013122, corrected P 0.183708) is “DOWN”. Besides, the “Direction of pathway enrichment (MitoCarta v3.0): mtRNA granules” value in the assay on gene expression in PBMCs (P 0.018336, corrected P 0.192528) is “DOWN”. The “Direction of pathway enrichment (MitoCarta v3.0): Vitamin metabolism” value in the assay on gene expression in PBMCs (P 0.02605831, corrected P 0.21888977) was “DOWN”. For the same molecule, in the assay on gene expression in PBMCs (P 0.027256, corrected P 0.190792), the “Direction of pathway enrichment (MitoCarta v3.0): Mitochondrial ribosome assembly” value was “DOWN”. The “Direction of pathway enrichment (MitoCarta v3.0): mt-tRNA synthetases” value in the assay with gene expression in PBMCs (P 0.03548, corrected P 0.21288) is “DOWN”. In addition, the “Direction of pathway enrichment (MitoCarta v3.0): OXPHOS assembly factors” value in the assay with gene expression in PBMCs (P 0.04239743, corrected P 0.2225865) is “DOWN”. Further, the “association with estimated cell type proportions in PBMC samples” value in the assay on gene expression in PBMCs (p>0.5) is “did not show a significant association”.

The values above are taken from US20240366648A1, “NAD-AUGMENTATION THERAPY FOR PARKINSON'S DISEASE” (Vestlandets Innovasjonsselskap AS (VIS), priority 2021, published 2024).
